ChEMBL document CHEMBL1136270 (Bioorg Med Chem Lett, 2003)

How the values were obtained:
MAP kinase p38 = MAP kinase p38 (Mus musculus, UniProt P47811+O08911+Q9WUI1+Q9Z1B7); assay: Inhibitory activity against mouse Mitogen-activated protein kinase p38; type: protein assay
THP-1 [1] = assay: Anti human TNF-alpha activity determined through TNF-alpha release was measured in the supernatants by ELISA; not active at a concentration of <10 uM; type: functional, cell-based
THP-1 [2] = assay: Anti human TNF-alpha activity determined through TNF-alpha release was measured in the supernatants by ELISA.; not active at a concentration of <10 uM; type: functional, cell-based

Row | SMILES | IC50 (MAP kinase p38) [nM] | IC50 (THP-1 [1]) | IC50 (THP-1 [2])
1 | O=C1NCc2nc(Sc3ccc(F)cc3F)c(N3CC4CC3CN4CC3CC3)cc2N1c1c(Cl)cccc1Cl (configuration not stated) | 3 | – | –
2 | O=C1NCc2nc(Sc3ccc(F)cc3F)c(N3CCOCC3)cc2N1c1c(Cl)cccc1Cl | 2 | – | –
3 | O=C1NCc2nc(Sc3ccc(F)cc3F)c(N3CCC(CCN4CCCC4)CC3)cc2N1c1c(Cl)cccc1Cl | 6 | – | –
4 | O=C1NCc2nc(Sc3ccc(F)cc3F)c(NC3CCNCC3)cc2N1c1c(Cl)cccc1Cl | 4 | – | –
5 | CC1CN(c2cc3c(nc2Sc2ccc(F)cc2F)CNC(=O)N3c2c(Cl)cccc2Cl)CC(C)O1 (configuration not stated) | 3 | – | –
6 | CN(C)CCN1CCN(c2cc3c(nc2Sc2ccc(F)cc2F)CNC(=O)N3c2c(Cl)cccc2Cl)CC1 | 0.6 | – | –
7 | O=C1NCc2nc(Sc3ccc(F)cc3F)c(OC3CCNCC3)cc2N1c1c(Cl)cccc1Cl | 11 | – | –
8 | CC(C)(C)OC(=O)N1CCN(c2cc3c(nc2Sc2ccc(F)cc2F)CNC(=O)N3c2c(Cl)cccc2Cl)CC1 | 25 | Not Active | –
9 | O=C1NCc2nc(Sc3ccc(F)cc3F)c(N3CCN(CCN4CCCC4)CC3)cc2N1c1c(Cl)cccc1Cl | 1.1 | – | –
10 | CCN1CC2CC1CN2c1cc2c(nc1Sc1ccc(F)cc1F)CNC(=O)N2c1c(Cl)cccc1Cl (configuration not stated) | 9 | – | –
11 | O=C1NCc2nc(Sc3ccc(F)cc3F)c(N3CC4CCC3C4)cc2N1c1c(Cl)cccc1Cl (configuration not stated) | 5.3 | – | –
12 | O=C1NCc2nc(Sc3ccc(F)cc3F)c(N3CCNCC3)cc2N1c1c(Cl)cccc1Cl | 2 | – | –
13 | CC(C)(C)OC(=O)N1CC2CC1CN2c1cc2c(nc1Sc1ccc(F)cc1F)CNC(=O)N2c1c(Cl)cccc1Cl (configuration not stated) | 44 | Not Active | –
14 | O=C1NCc2nc(Sc3ccc(F)cc3F)c(N3CC4CC3CN4C3CC3)cc2N1c1c(Cl)cccc1Cl (configuration not stated) | 3 | – | –
15 | CC(C)N1CC2CC1CN2c1cc2c(nc1Sc1ccc(F)cc1F)CNC(=O)N2c1c(Cl)cccc1Cl (configuration not stated) | 2 | – | –
16 | CC(C)N1CCN(c2cc3c(nc2Sc2ccc(F)cc2F)CNC(=O)N3c2c(Cl)cccc2Cl)CC1 | 7 | – | –
17 | O=C1NCc2nc(Sc3ccc(F)cc3F)c(N3CCCCC3)cc2N1c1c(Cl)cccc1Cl | 4.2 | – | –
18 | O=C1NCc2nc(Sc3ccc(F)cc3F)c(N3CC4CC3CN4)cc2N1c1c(Cl)cccc1Cl (configuration not stated) | 0.6 | – | –
19 | O=C1NCc2nc(Sc3ccc(F)cc3F)c(Br)cc2N1c1c(Cl)cccc1Cl | 16 | – | Not Active
